Test results reported in BindingDB's records for doi:10.7270/Q22V2DH9 (Nmmlsc, 2007).

Target: T1, N-formyl peptide receptor 2 (Homo sapiens, UniProt P25090)
T1 sequence (P25090 whole entry): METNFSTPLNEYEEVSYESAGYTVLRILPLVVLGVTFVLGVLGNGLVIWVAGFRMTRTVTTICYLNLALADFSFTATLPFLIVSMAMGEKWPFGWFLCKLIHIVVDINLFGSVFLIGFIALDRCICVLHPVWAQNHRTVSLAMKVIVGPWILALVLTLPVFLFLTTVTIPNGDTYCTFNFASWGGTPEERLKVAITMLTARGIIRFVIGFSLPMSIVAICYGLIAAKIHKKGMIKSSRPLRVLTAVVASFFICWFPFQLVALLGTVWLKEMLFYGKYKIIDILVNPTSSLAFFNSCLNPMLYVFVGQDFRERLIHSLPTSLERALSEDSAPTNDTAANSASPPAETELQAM
Experiment: human FPR2 ligand displacement potency – cell-based, flow cytometry, Ki from IC50, selectivity assay for FPR1 ligand SAR project, dose response (AID 723)

Row | Compound | IC50
1 | COc1ccc(-c2c(C(F)(F)F)oc3cc(OC(=O)c4ccco4)ccc3c2=O)cc1OC [2-furancarboxylic acid [3-(3,4-dimethoxyphenyl)-4-oxo-2-(trifluoromethyl)-1-benzopyran-7-yl] ester] | > 66.7 µM
2 | O=C(Oc1ccc2c(=O)c(Oc3ccccc3Br)c(C(F)(F)F)oc2c1)c1cccs1 [2-thiophenecarboxylic acid [3-(2-bromophenoxy)-4-oxo-2-(trifluoromethyl)-1-benzopyran-7-yl] ester] | > 66.7 µM
3 | COc1cc(C2C(C(=O)c3cc4ccccc4o3)C(=O)C(=O)N2CCN(C)C)ccc1O (configuration not stated) [3-(1-benzofuran-2-carbonyl)-1-[2-(dimethylamino)ethyl]-4-hydroxy-2-(4-hydroxy-3-methoxyphenyl)-2H-pyrrol-5-one] | > 66.7 µM
4 | COc1ccc(C2C(C(=O)c3cc4ccccc4o3)C(=O)C(=O)N2CCN(C)C)cc1OC (configuration not stated) [3-(1-benzofuran-2-carbonyl)-2-(3,4-dimethoxyphenyl)-1-[2-(dimethylamino)ethyl]-4-hydroxy-2H-pyrrol-5-one] | > 66.7 µM
5 | O=C1C(=O)N(CCCn2ccnc2)C(c2cccnc2)C1C(=O)c1cc2ccccc2o1 (configuration not stated) [3-(1-benzofuran-2-carbonyl)-4-hydroxy-1-(3-imidazol-1-ylpropyl)-2-pyridin-3-yl-2H-pyrrol-5-one] | > 66.7 µM
6 | O=C1C(=O)N(CCCN2CCOCC2)C(c2cccnc2)C1C(=O)c1cc2ccccc2o1 (configuration not stated) [3-(1-benzofuran-2-carbonyl)-4-hydroxy-1-(3-morpholin-4-ylpropyl)-2-pyridin-3-yl-2H-pyrrol-5-one] | > 66.7 µM
7 | COc1ccc(-c2c(C(F)(F)F)oc3c(CN4CCOCC4)c(O)ccc3c2=O)cc1OC [3-(3,4-dimethoxyphenyl)-7-hydroxy-8-(4-morpholinylmethyl)-2-(trifluoromethyl)-1-benzopyran-4-one] | > 66.7 µM
8 | COc1ccc(C2C(C(=O)N3CCCC(C)C3)c3ccccc3C(=O)N2C)cc1 (configuration not stated) [3-(4-methoxyphenyl)-2-methyl-4-(3-methylpiperidin-1-yl)carbonyl-3,4-dihydroisoquinolin-1-one] | > 66.7 µM
9 | O=C1C(=O)N(CCCn2ccnc2)C(c2cccnc2)C1C(=O)c1ccco1 (configuration not stated) [3-(furan-2-carbonyl)-4-hydroxy-1-(3-imidazol-1-ylpropyl)-2-pyridin-3-yl-2H-pyrrol-5-one] | > 66.7 µM
10 | COc1ccc(OC)c(C2C(C(=O)c3ccc(C)cc3)C(=O)C(=O)N2CCC(=O)O)c1 (configuration not stated) [3-[(3E)-2-(2,5-dimethoxyphenyl)-3-[(4-methylphenyl)-oxidanyl-methylidene]-4,5-bis(oxidanylidene)pyrrolidin-1-yl]propanoic acid] | > 66.7 µM
11 | COc1ccc(-c2c(C(F)(F)F)oc3cc(OC(=O)c4cccnc4)ccc3c2=O)cc1OC [3-pyridinecarboxylic acid [3-(3,4-dimethoxyphenyl)-4-oxo-2-(trifluoromethyl)-1-benzopyran-7-yl] ester] | > 66.7 µM
12 | Cc1cccc(C2CC(=O)NC3=C2C(=O)CC(c2cccs2)C3)c1 (configuration not stated) [4-(3-methylphenyl)-7-thiophen-2-yl-1,3,4,6,7,8-hexahydroquinoline-2,5-dione] | > 66.7 µM
13 | O=C(O)CCCN1C(=O)C(=O)C(C(=O)c2ccccc2)C1/C=C/c1ccccc1 (configuration not stated) [4-[(4E)-2,3-bis(oxidanylidene)-4-[oxidanyl(phenyl)methylidene]-5-[(E)-2-phenylethenyl]pyrrolidin-1-yl]butanoic acid] | > 66.7 µM
14 | COc1ccc(C2C(C(=O)c3ccco3)C(=O)C(=O)N2CCN2CCOCC2)c(OC)c1 (configuration not stated) [5-(2,4-dimethoxyphenyl)-4-(furan-2-carbonyl)-3-hydroxy-1-(2-morpholinoethyl)-1H-pyrrol-2(5H)-one] | > 66.7 µM
15 | O=C1CC(c2ccccc2C(F)(F)F)C2=C(CC(c3cccs3)CC2=O)N1 (configuration not stated) [7-(2-thienyl)-4-[2-(trifluoromethyl)phenyl]-1,3,4,6,7,8-hexahydroquinoline-2,5-quinone] | > 66.7 µM
16 | COCCN1C(=O)C(=O)C(C(=O)c2ccccc2)C1c1ccc(C(C)C)cc1 (configuration not stated) [(4E)-1-(2-methoxyethyl)-4-[oxidanyl(phenyl)methylidene]-5-(4-propan-2-ylphenyl)pyrrolidine-2,3-dione] | > 66.7 µM
17 | COCCN1C(=O)C(=O)C(C(=O)c2ccccc2)C1c1ccccc1OC (configuration not stated) [(4E)-1-(2-methoxyethyl)-5-(2-methoxyphenyl)-4-[oxidanyl(phenyl)methylidene]pyrrolidine-2,3-dione] | > 66.7 µM
18 | COc1ccc(OC)c(C2C(C(=O)c3ccccc3)C(=O)C(=O)N2c2ccc(C)c(Cl)c2)c1 (configuration not stated) [(4E)-1-(3-chloranyl-4-methyl-phenyl)-5-(2,5-dimethoxyphenyl)-4-[oxidanyl(phenyl)methylidene]pyrrolidine-2,3-dione] | > 66.7 µM
19 | COc1ccc(C2C(C(=O)c3ccccc3)C(=O)C(=O)N2c2cccc(Cl)c2)c(OC)c1 (configuration not stated) [(4E)-1-(3-chlorophenyl)-5-(2,4-dimethoxyphenyl)-4-[hydroxy(phenyl)methylene]pyrrolidine-2,3-quinone] | > 66.7 µM
20 | COCCCN1C(=O)C(=O)C(C(=O)c2ccccc2)C1c1ccc(C(C)C)cc1 (configuration not stated) [(4E)-1-(3-methoxypropyl)-4-[oxidanyl(phenyl)methylidene]-5-(4-propan-2-ylphenyl)pyrrolidine-2,3-dione] | > 66.7 µM
21 | Cc1ccc(C(=O)C2C(=O)C(=O)N(c3nnc(C)s3)C2c2ccc(C(C)C)cc2)cc1 (configuration not stated) [(4E)-4-[(4-methylphenyl)-oxidanyl-methylidene]-1-(5-methyl-1,3,4-thiadiazol-2-yl)-5-(4-propan-2-ylphenyl)pyrrolidine-2,3-dione] | > 66.7 µM
22 | CC(C)c1ccc(C2C(C(=O)c3ccccc3)C(=O)C(=O)N2Cc2cccnc2)cc1 (configuration not stated) [(4E)-4-[hydroxy(phenyl)methylene]-5-p-cumenyl-1-(3-pyridylmethyl)pyrrolidine-2,3-quinone] | > 66.7 µM
23 | COc1ccc(C2C(C(=O)c3ccccc3)C(=O)C(=O)N2CCCn2ccnc2)c(OC)c1 (configuration not stated) [(4E)-5-(2,4-dimethoxyphenyl)-1-(3-imidazol-1-ylpropyl)-4-[oxidanyl(phenyl)methylidene]pyrrolidine-2,3-dione] | > 66.7 µM
24 | COc1ccc(C2C(C(=O)c3ccc(C)cc3)C(=O)C(=O)N2Cc2cccnc2)c(OC)c1 (configuration not stated) [(4E)-5-(2,4-dimethoxyphenyl)-4-[(4-methylphenyl)-oxidanyl-methylidene]-1-(pyridin-3-ylmethyl)pyrrolidine-2,3-dione] | > 66.7 µM
25 | COCCN1C(=O)C(=O)C(C(=O)c2ccccc2)C1c1cc(OC)ccc1OC (configuration not stated) [(4E)-5-(2,5-dimethoxyphenyl)-1-(2-methoxyethyl)-4-[oxidanyl(phenyl)methylidene]pyrrolidine-2,3-dione] | > 66.7 µM
26 | COc1ccc(OC)c(C2C(C(=O)c3ccccc3)C(=O)C(=O)N2c2cccnc2)c1 (configuration not stated) [(4E)-5-(2,5-dimethoxyphenyl)-4-[hydroxy(phenyl)methylene]-1-(3-pyridyl)pyrrolidine-2,3-quinone] | > 66.7 µM
27 | COCCCN1C(=O)C(=O)C(C(=O)c2ccccc2)C1c1ccc(O)c(OC)c1 (configuration not stated) [(4E)-5-(3-methoxy-4-oxidanyl-phenyl)-1-(3-methoxypropyl)-4-[oxidanyl(phenyl)methylidene]pyrrolidine-2,3-dione] | > 66.7 µM
28 | O=C1C(=O)N(CN2CCOCC2)C(c2ccc(Br)cc2)C1C(=O)c1ccccc1 (configuration not stated) [(4E)-5-(4-bromophenyl)-1-(morpholin-4-ylmethyl)-4-[oxidanyl(phenyl)methylidene]pyrrolidine-2,3-dione] | > 66.7 µM

Continued, values first:

Row | IC50 | Compound
29 | > 66.7 µM | COc1ccccc1-c1c(C(F)(F)F)oc2cc(OC(=O)c3ccco3)ccc2c1=O
30 | > 66.7 µM | O=C(Oc1ccc2c(=O)c(-c3ccccc3Cl)c(C(F)(F)F)oc2c1)c1cccs1
31 | > 66.7 µM | CC(=O)C1C(=O)C(=O)N(CCc2c(C)[nH]c3ccccc23)C1c1cccc(F)c1 (configuration not stated)
32 | > 66.7 µM | COc1ccc(C(=O)C2C(=O)C(=O)N(CCc3c[nH]c4ccccc34)C2c2ccc(C(C)C)cc2)cc1 (configuration not stated)
33 | > 66.7 µM | COc1ccc(-c2c(C)[nH]n3c(=O)c4c(nc23)CCCC4)cc1
34 | > 66.7 µM | Cc1nc2c(-c3ccc(Cl)cc3)c(C(F)(F)F)[nH]n2c(=O)c1Cc1ccccc1
35 | > 66.7 µM | COc1ccc(C2C(C(=O)c3cccs3)C(=O)C(=O)N2CCCn2ccnc2)cc1 (configuration not stated) [1-(3-imidazol-1-ylpropyl)-2-(4-methoxyphenyl)-4-oxidanyl-3-thiophen-2-ylcarbonyl-2H-pyrrol-5-one]
36 | > 66.7 µM | COc1cc(C2C(C(C)=O)C(=O)C(=O)N2c2ccc(Br)cc2)ccc1O (configuration not stated) [1-(4-bromophenyl)-3-ethanoyl-2-(3-methoxy-4-oxidanyl-phenyl)-4-oxidanyl-2H-pyrrol-5-one]
37 | > 66.7 µM | Cc1sc2c(c1C)c(=O)n(Cc1ccccc1)c(=O)n2Cc1ccccc1F [1-[(2-fluorophenyl)methyl]-5,6-dimethyl-3-(phenylmethyl)thieno[2,3-d]pyrimidine-2,4-dione]
38 | > 66.7 µM | COc1ccc(C2C(C(=O)c3cccs3)C(=O)C(=O)N2CCN2CCOCC2)c(OC)c1 (configuration not stated) [2-(2,4-dimethoxyphenyl)-1-(2-morpholin-4-ylethyl)-4-oxidanyl-3-thiophen-2-ylcarbonyl-2H-pyrrol-5-one]
39 | > 66.7 µM | COc1ccc(C2C(C(=O)c3ccco3)C(=O)C(=O)N2CCCN2CCOCC2)cc1OC (configuration not stated) [2-(3,4-dimethoxyphenyl)-3-(furan-2-carbonyl)-4-hydroxy-1-(3-morpholin-4-ylpropyl)-2H-pyrrol-5-one]
40 | > 66.7 µM | O=C1C(=O)N(CCc2ccccc2)C(c2ccc(Cl)cc2)C1C(=O)c1cccs1 (configuration not stated) [2-(4-chlorophenyl)-4-hydroxy-1-(2-phenylethyl)-3-(thiophene-2-carbonyl)-2H-pyrrol-5-one]
41 | > 66.7 µM | O=C(O)C1CCCCC1C(=O)Nc1ccc(Br)cc1 (configuration not stated) [2-[(4-bromoanilino)-oxomethyl]-1-cyclohexanecarboxylic acid]
42 | > 66.7 µM | CCC(C)(C(=O)NC1CCCCC1)N(Cc1cccs1)C(C)=O (configuration not stated) [2-[acetyl(2-thenyl)amino]-N-cyclohexyl-2-methyl-butyramide]
